Measurements from the supplement of paper PMC10307832.

Tests used:
Assay in all cases: relative viability (nuclei count vs DMSO), 5 days (fraction); higher = more cells survive
[1] = compound: CN(c1ncccc1CNc1nc(Nc2ccc3c(c2)CC(=O)N3)ncc1C(F)(F)F)S(C)(=O)=O + Cc1nc(NC(=O)N2CCC[C@H]2C(N)=O)sc1-c1ccnc(C(C)(C)C(F)(F)F)c1 [Alpelisib] (partner 2 µM)
In short: (§1)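 Lung cancer cell lines, seeded in 1536-well plates, were treated the following day by pin tool with a single drug or with five library-drug doses (not always all listed) in √10 steps on top of a fixed anchor-drug dose. Cells were fixed and nuclei stained in one step after 5 days, and nuclei were counted. Relative viability is the nuclei count for treated wells divided by that for vehicle wells, reported as medians of duplicate plates.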

[2] = compound: CN(c1ncccc1CNc1nc(Nc2ccc3c(c2)CC(=O)N3)ncc1C(F)(F)F)S(C)(=O)=O + CC(C)C[C@H](NC(=O)[C@H](Cc1ccccc1)NC(=O)c1cnccn1)B(O)O [Bortezomib] (partner 0.002 µM)
In short: as §1

[3] = compound: CN(c1ncccc1CNc1nc(Nc2ccc3c(c2)CC(=O)N3)ncc1C(F)(F)F)S(C)(=O)=O + CC(=O)c1c(C)c2cnc(Nc3ccc(N4CCNCC4)cn3)nc2n(C2CCCC2)c1=O [Palbociclib] (partner 0.5 µM)
In short: as §1

[4] = compound: CN(c1ncccc1CNc1nc(Nc2ccc3c(c2)CC(=O)N3)ncc1C(F)(F)F)S(C)(=O)=O + Cc1nc(Nc2ncc(C(=O)Nc3c(C)cccc3Cl)s2)cc(N2CCN(CCO)CC2)n1 [Dasatinib] (partner 0.075 µM)
In short: as §1

| Cell Line | relative viability ([1]; first compound 0.01 µM) | relative viability ([1]; first compound 0.03162 µM) | relative viability ([1]; first compound 0.1 µM) | relative viability ([1]; first compound 0.3162 µM) | relative viability ([1]; first compound 1 µM) | relative viability ([2]; first compound 0.01 µM) | relative viability ([2]; first compound 0.03162 µM) | relative viability ([2]; first compound 0.1 µM) | relative viability ([2]; first compound 0.3162 µM) | relative viability ([2]; first compound 1 µM) | relative viability ([3]; first compound 0.01 µM) | relative viability ([3]; first compound 0.03162 µM) | relative viability ([3]; first compound 0.1 µM) | relative viability ([3]; first compound 0.3162 µM) | relative viability ([3]; first compound 1 µM) | relative viability ([4]; first compound 0.01 µM) | relative viability ([4]; first compound 0.03162 µM) | relative viability ([4]; first compound 0.1 µM) | relative viability ([4]; first compound 0.3162 µM) | relative viability ([4]; first compound 1 µM) |
| --- | --- | --- | --- | --- | --- | --- | --- | --- | --- | --- | --- | --- | --- | --- | --- | --- | --- | --- | --- | --- |
| SW 1573 | 0.73 | 1.08 | 0.628 | 0.922 | 0.778 | 1.17 | 0.898 | 0.977 | 1.05 | 1.11 | 0.482 | 0.399 | 0.346 | 0.31 | 0.35 | 0.428 | 0.453 | 0.406 | 0.383 | 0.273 |
| PC-14 | 1.02 | 1.07 | 0.982 | 0.951 | 0.869 | 1.02 | 0.935 | 0.984 | 0.799 | 0.821 | 0.543 | 0.635 | 0.526 | 0.515 | 0.364 | 0.211 | 0.191 | 0.14 | 0.211 | 0.158 |
| COR-L23 | 0.742 | 0.846 | 0.713 | 0.647 | 0.702 | 0.967 | 1.01 | 1.05 | 0.951 | 0.894 | 0.265 | 0.262 | 0.308 | 0.239 | 0.234 | 0.458 | 0.524 | 0.483 | 0.413 | 0.323 |
| HCC-78 | 0.368 | 0.407 | 0.285 | 0.361 | 0.31 | 0.567 | 0.587 | 0.502 | 0.462 | 0.422 | 0.419 | 0.46 | 0.462 | 0.487 | 0.408 | 0.312 | 0.33 | 0.325 | 0.256 | 0.296 |
| NCI-H2405 | 0.837 | 0.757 | 0.719 | 0.72 | 0.727 | 1.05 | 0.972 | 1.03 | 0.865 | 0.813 | 0.51 | 0.518 | 0.504 | 0.466 | 0.391 | 0.229 | 0.197 | 0.184 | 0.22 | 0.218 |
| SK-LU-1 | 0.929 | 1.25 | 0.988 | 0.988 | 0.928 | 1.33 | 1.28 | 0.839 | 1.24 | 1.12 | 0.405 | 0.358 | 0.398 | 0.401 | 0.369 | 0.198 | 0.176 | 0.157 | 0.162 | 0.124 |
| EMC-BAC-2 | 0.761 | 0.811 | 0.68 | 0.698 | 0.676 | 1.08 | 1.1 | 1 | 1.06 | 1.08 | 0.494 | 0.503 | 0.518 | 0.511 | 0.491 | 0.247 | 0.308 | 0.279 | 0.295 | 0.271 |
| LCLC-97TM1 | – | 0.246 | 0.229 | 0.246 | 0.161 | 1.04 | 0.74 | 0.439 | 0.559 | 0.526 | 0.217 | 0.176 | 0.171 | 0.18 | 0.158 | 0.727 | 0.794 | 0.815 | 0.773 | 0.722 |
